Key:
Type in all cases: cell-based, human
Interleukin-6 (IL-6) = test: IL-6 gene expression by qRT-PCR after cytokine-induced inflammation; details: HaCaT; 25 ng/ml TNFα and 25 ng/ml IFNγ; DMG 0.005%-0.00005%; 24 h; versus positive control of inflammation induction
Method: Interleukin-6 (IL-6) is a peptide hormone of the immune system from the group of pro-inflammatory interleukins and plays a key role in the non-specific, innate immune response. Gene expression was measured using a standard method known as quantitative real-time PCR (qRT-PCR).
Human epidermal keratinocyte cells (HaCaT) were seeded in a 6-well plate at a cell density of 140,000 cells/well and cultured in medium (DMEM with 10% FBS, 1% penicillin-streptomycin, 0.5% fungizone) at 37° C. and 5 vol % CO2. On the next day, cytokine treatment (25 ng/ml tumor necrosis factor-alpha (TNFα) and 25 ng/ml interferon-gamma (IFNγ)) was used to induce cell inflammation. […] with the different DMG drug concentrations (inflammation induction+DMG 0.005%−0.00005%) or without DMG (positive control of inflammation induction). In parallel, cells were treated without any treatment (control) or only with the different DMG drug concentrations (DMG 0.005%−0.00005%) and the cells were harvested after 24 h for gene expression analysis. Gene expression was measured using qRT-PCR based on previously published studies in B. V. Diaz, M.-C. Lenoir, A. Ladoux, C. Frelin, M. Démarchez, S. Michel, Journal of Biological Chemistry 2000, 275, 642-650.

HaCaT cells [1] = test: CyQUANT assay, cell proliferation; details: after 48 h and 72 h of cultivation, versus control without DMG
Method: (§1) As part of an in vitro study, the effect of sodium dimethylglycinate was investigated in a cell culture model with human keratin-forming keratinocyte cells. For this purpose, HaCaT cells were cultured for 1, 3, 5 and 7 days in DMEM medium (including fetal calf serum and an antibiotic-antimycotic mix) and the viability, proliferation and migration of the cells were determined using suitable measurement methods and the expression of growth factors relevant for cell growth was determined.
A so-called CyQUANT assay was used to measure proliferation. In this fluorescence-based assay, the fluorescent dye used binds to DNA (deoxyribonucleic acid), whereby the content of cellular DNA is a direct measure of the number of cells within a sample.
(§2) Human epidermal keratinocyte cells (HaCaT) were seeded in a 96-well plate at a cell density of 5,000 cells/well and cultured in medium (DMEM with 10% FBS, 1% penicillin-streptomycin, 0.5% fungizone). On the next day and after a further 24 h, 48 h and 72 h of cultivation at 37° C. and 5 vol. % CO2, the cell culture medium without (control) or with the respective concentrations of active substance already contained was changed. […]

HaCaT cells [2] = test: MTT assay, cell viability; details: after 48 h and 72 h of cultivation, versus control without DMG
Method: as §1
For this measurement, a so-called MTT assay was used to determine cellular metabolic activity as an indicator of cell viability and cytotoxicity. This colorimetric assay is based on the reduction of a yellow tetrazolium salt (3-(4,5-dimethylthiazol-2-yl)-2,5-diphenyltetrazolium bromide or MTT) to purple formazan crystals by metabolically active cells.
as §2, with “sodium dimethylglycinate (DMG)” for “active substance”

VEGF = VEGF gene expression by qRT-PCR; details: HaCaT; after 24 h of cultivation; versus control without DMG
Method: VEGF (vascular endothelial growth factor) promotes the growth and formation of new blood and lymph vessels. Gene expression was measured using a standard method known as quantitative real-time PCR (qRT-PCR).
Human epidermal keratinocyte cells (HaCaT) were seeded in a 6-well plate at a cell density of 140,000 cells/well and cultured in medium (DMEM with 10% FBS, 1% penicillin-streptomycin, 0.5% fungizone) at 37° C. and 5 vol % CO2. On the next day, the cell culture medium without (control) or with the respective concentrations of active substance already contained was changed and the cells were harvested after 24 hours. Gene expression was measured using qRT-PCR based on previously published studies in B. V. Diaz, M.-C. Lenoir, A. Ladoux, C. Frelin, M. Demarchez, S. Michel, Journal of Biological Chemistry 2000, 275, 642-650.

HaCaT cells [3] = test: wound healing assay, migration; details: images after 16 h, 20 h and 24 h, different DMG concentrations, versus control without DMG
Method: as §1
A so-called wound healing assay was used to measure migration, based on previously published studies in T. Kawabata, T. Otsuka, K. Fujita, G. Sakai, R. Matsushima-Nishiwaki, O. Kozawa, H. Tokuda, International journal of molecular medicine 2018, 42, 3149-3156. The principle is based on measuring the migration of cells to a not yet colonized cultivation surface over time. For this purpose, 20,000 cells each were seeded into two adjacent wells or cavities separated by a silicone insert (with standardized width) and cultivated in medium (DMEM with 5% FBS, 1% penicillin-streptomycin, 0.5% fungizone) for 48 h at 37° C. and 5 vol % CO2. The plastic insert was then removed (“creation of the wound”) and the migration of the cells was documented by determining the cultivation surface not colonized with cells over time using images. […]

Structure (SMILES): CN(C)CC(=O)[O-].[Na+] [DMG, sodium dimethylglycinate]
- expression of interleukin-6 induced by cytokine treatment (Interleukin-6 (IL-6)): dose-dependently reduced
- cell proliferation (CyQUANT, fluorescence normalized to control at 24 h) (HaCaT cells [1]): clear increase
- cell viability (MTT, absorption normalized to control at 24 h) (HaCaT cells [2]): clear increase
- relative gene expression of VEGF (normalized to GAPDH) (VEGF): significant increase
- migration or wound closure (HaCaT cells [3]): significantly faster
